Data on 3 molecules can be found in patent US20180303807A1, “ANDROGEN RECEPTOR LIGANDS” (DUKE UNIVERSITY, priority 2015, published 2018).

What all share (type): cell-based
For one data set, the system named is CV1 cells. Briefly: Toxicity of test compound in the CV1 reporter gene assay (Renilla-Luc).
In data set [1] the test system is AR. Briefly: Real-time PCR of AR target gene transcription in LNCaP-AR (AR overexpressing) cells, CRPC model. Also noted: key to B5 = Relative antagonist activity (plus 0.1 nM R1881) of test compounds (20 μM) in AR overexpressing LNCaP cells (NKX3.1 AR target gene) / B7 = Relative antagonist activity (plus 0.1 nM R1881) of test compounds (20 μM) in AR overexpressing LNCaP cells (PSA AR target gene): a score of 1 indicates higher antagonist efficacy (highly desired activity) than benchmark compound enzalutamide; a score of 2 indicates equal antagonist efficacy to enzalutamide (desirable); a score of 3 indicates antagonist efficacy between enzalutamide and bicalutamide (less desirable activity); a score of 4 indicates antagonist efficacy equal to bicalutamide (liability); a score of 5 indicates antagonist efficacy worse than bicalutamide (liability); key to B4 = Relative agonist activity (no R1881) of test compounds (20 μM) in AR overexpressing LNCaP cells (NKX3.1 AR target gene) / B6 Relative agonist activity (no R1881) of test compounds (20 μM) in AR overexpressing LNCaP cells (PSA AR target gene): a score of 1 indicates less agonism (highly desired activity) than benchmark compound enzalutamide; a score of 2 indicates equal agonism to enzalutamide (desirable); a score of 3 indicates agonism between enzalutamide and bicalutamide (less desirable activity); a score of 4 indicates equal agonism to bicalutamide (liability); a score of 5 indicates higher agonism than bicalutamide (liability). The conditions noted are these: 20 μM, score vs enzalutamide/bicalutamide; for B4 = Relative agonist activity (no R1881) of test compounds (20 μM) in AR overexpressing LNCaP cells (NKX3.1 AR target gene): no R1881, NKX3.1 gene; for B5 = Relative antagonist activity (plus 0.1 nM R1881) of test compounds (20 μM) in AR overexpressing LNCaP cells (NKX3.1 AR target gene): plus 0.1 nM R1881, NKX3.1 gene; for B7 = Relative antagonist activity (plus 0.1 nM R1881) of test compounds (20 μM) in AR overexpressing LNCaP cells (PSA AR target gene): plus 0.1 nM R1881, PSA gene. The procedure: Real-Time PCR (CRPC model of AR overexpressing prostate cancer cells, Table 2, B4-B7). LNCaP-AR (AR overexpressing cells) cells were seeded in 12-well plates in RPMI 1640 (8% charcoal-stripped fetal calf serum (CFS)). […] AR target gene transcription (PSA, NKX3.1, FKBP5) was assessed by realtime PCR.
For B4-B7, scoring system is based on the relative AR target gene agonist/antagonist activity of test compounds when compared to benchmark compounds enzalutamide or bicalutamide. […] The lack of agonist activity is desirable for therapies intended to treat CRPC. For B4 and B6, a score of 1 indicates less agonism (highly desired activity) than benchmark compound enzalutamide, a score of 2 indicates equal agonism to enzalutamide (desirable), a score of 3 indicates agonism between enzalutamide and bicalutamide (less desirable activity), a score of 4 indicates equal agonism to bicalutamide (liability), and a score of 5 indicates higher agonism than bicalutamide (liability). For B5 and B7 a score of 1 indicates higher antagonist efficacy (highly desired activity) than benchmark compound enzalutamide, a score of 2 indicates equal antagonist efficacy to enzalutamide (desirable), a score of 3 indicates antagonist efficacy between enzalutamide and bicalutamide (less desirable activity), a score of 4 indicates antagonist efficacy equal to bicalutamide (liability), and a score of 5 indicates antagonist efficacy worse than bicalutamide (liability) For B9, Compounds that degrade AR (greater than 50% degradation at 10 μM) are indicated.
Background: Quantitative PCR measures a nucleic acid by following its amplification.

Data set [2] addresses T1, AR (Homo sapiens, UniProt P10275, T878A).
T1 construct: endogenous in cells; host or cells: LNCaP cells
T1 sequence (P10275 1-920 T878A): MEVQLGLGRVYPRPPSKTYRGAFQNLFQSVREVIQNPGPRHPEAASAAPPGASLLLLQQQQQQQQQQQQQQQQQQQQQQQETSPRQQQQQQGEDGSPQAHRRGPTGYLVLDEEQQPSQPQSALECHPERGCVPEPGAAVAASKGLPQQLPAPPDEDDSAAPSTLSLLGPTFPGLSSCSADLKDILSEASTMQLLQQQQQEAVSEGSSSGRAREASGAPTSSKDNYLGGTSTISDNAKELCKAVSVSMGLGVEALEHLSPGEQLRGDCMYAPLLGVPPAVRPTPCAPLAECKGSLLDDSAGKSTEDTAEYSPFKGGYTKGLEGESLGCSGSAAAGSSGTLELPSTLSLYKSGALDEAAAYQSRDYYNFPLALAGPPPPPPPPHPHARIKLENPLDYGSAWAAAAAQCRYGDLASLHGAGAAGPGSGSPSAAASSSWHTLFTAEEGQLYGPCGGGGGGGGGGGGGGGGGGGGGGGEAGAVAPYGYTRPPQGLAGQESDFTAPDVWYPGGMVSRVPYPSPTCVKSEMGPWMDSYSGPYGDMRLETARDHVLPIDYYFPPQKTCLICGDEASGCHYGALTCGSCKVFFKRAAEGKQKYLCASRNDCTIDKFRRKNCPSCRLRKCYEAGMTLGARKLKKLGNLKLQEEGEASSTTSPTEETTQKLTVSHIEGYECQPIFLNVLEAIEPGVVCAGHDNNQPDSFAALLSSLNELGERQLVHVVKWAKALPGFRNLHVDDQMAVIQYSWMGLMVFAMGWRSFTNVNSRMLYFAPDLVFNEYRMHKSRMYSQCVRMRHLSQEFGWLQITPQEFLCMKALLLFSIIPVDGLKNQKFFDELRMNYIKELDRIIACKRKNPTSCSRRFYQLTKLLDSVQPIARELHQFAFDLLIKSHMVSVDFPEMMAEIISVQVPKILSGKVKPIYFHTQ
Briefly: In Cell Western AR degradation assay in LNCaP cells. The conditions noted are these: 18 hrs, greater than 50% degradation at 10 μM (method says 20 μM). In outline:
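After 48 h plating in RPMI with 8% CFS, LNCaP cells were exposed to 20 μM test compound for 18 h, fixed with 3.7% formaldehyde and permeabilized. AR was detected with anti-AR N20 antibody and an infrared secondary, imaged by LI-COR Odyssey and normalized to DRAQ5 DNA stain.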

Regarding `O=C1CCCC2=C1Nc1ccc3ccccc3c1C2c1ccc([N+](=O)[O-])cc1` (stereo not drawn) [Compound A10], in the data set with CV1 cells, the “B2 = % Toxicity of test compound (20 μM)” value is listed as 17% and the “B3 = % Toxicity of test compound (60 μM)” value is 88%. In the data set with AR [1], the “B4 = Relative agonist activity (no R1881) of test compounds (20 μM) in AR overexpressing LNCaP cells (NKX3.1 AR target gene)” value turned out to be 2, the “B6 Relative agonist activity (no R1881) of test compounds (20 μM) in AR overexpressing LNCaP cells (PSA AR target gene)” value (“B6 Relative agonist activity (no R1881)” for short) is given as 1, the “B5 = Relative antagonist activity (plus 0.1 nM R1881) of test compounds (20 μM) in AR overexpressing LNCaP cells (NKX3.1 AR target gene)” value (“B5 = Relative antagonist activity” below) worked out at 2 and the “B7 = Relative antagonist activity (plus 0.1 nM R1881) of test compounds (20 μM) in AR overexpressing LNCaP cells (PSA AR target gene)” value (shortened to “B7 = Relative antagonist activity”) came out at 1. On AR [2], the “B9 = AR degradation in LNCaP cells (In-Cell Western)” value (shortened to “B9 = AR degradation in LNCaP cells”) is on record as “Degrader (Compounds that degrade AR (greater than 50% degradation at 10 μM) are indicated)”.
Consider `O=C1CCCC2=C1C(c1ccc([N+](=O)[O-])cc1)c1c(ccc3ccccc13)N2` (stereo not drawn) [Compound A1, 12-(4-nitrophenyl)-8,9,10,12-tetrahydrobenzo[a]acridin-11(7H)-one], for which, in the data set on CV1 cells, the “B2 = % Toxicity of test compound (20 μM)” value worked out at 32% and the “B3 = % Toxicity of test compound (60 μM)” value is given as 87%. In addition, in the data set on AR [1], the “B4 = Relative agonist activity (no R1881) of test compounds (20 μM) in AR overexpressing LNCaP cells (NKX3.1 AR target gene)” value is listed as 1, the “B6 Relative agonist activity (no R1881)” value is listed as 1, the “B5 = Relative antagonist activity” value came out at 2 and the “B7 = Relative antagonist activity” value worked out at 2. At AR [2], the “B9 = AR degradation in LNCaP cells” value was “Degrader (Compounds that degrade AR (greater than 50% degradation at 10 μM) are indicated)”.
In the case of `CC1CC(=O)C2=C(C1)Nc1ccc3ccccc3c1C2c1ccc(F)cc1` (stereo not drawn) [Compound A4], in the data set on CV1 cells, the “B2 = % Toxicity of test compound (20 μM)” value was 0% and the “B3 = % Toxicity of test compound (60 μM)” value came out at 51%. For the same molecule, in the data set on AR [1], the “B4 = Relative agonist activity (no R1881) of test compounds (20 μM) in AR overexpressing LNCaP cells (NKX3.1 AR target gene)” value was 1, the “B6 Relative agonist activity (no R1881)” value is recorded as 1, the “B5 = Relative antagonist activity” value was 1 and the “B7 = Relative antagonist activity” value is 1. The “B9 = AR degradation in LNCaP cells” value on AR [2] was “Degrader (Compounds that degrade AR (greater than 50% degradation at 10 μM) are indicated)”.
